Test results: patent US8445476B2, “Carbacephem β-lactam antibiotics” (Achaogen, Inc., priority 2007, dated 2013)
Converted amounts (≈) assume the structure as drawn. Like-named read-outs stand apart in the source and are kept apart here.

Assays:
[1] = tested on: Staphylococcus aureus Methicillin Resistance (MRSA) (ATCC 33591); settings: 160 mg/kg/day, dosed 4 times per day, previously reported (Craig et al.); cited from earlier work
[2] = tested on: S. aureus ASAU001 (Susceptible Organism ATCC 29213); test: MIC assay, S. aureus ASAU001; type: cell-based; settings: Staphylococcus aureus, ATCC29213, read-out: MIC ASAU 001
Method: (§1) The in vitro MIC for bacterial isolates may be obtained in the following manner: a test compound is incorporated into a series of two-fold dilutions in cation adjusted Mueller-Hinton broth (CAMHB). Different bacterial strains diluted to provide a uniform inoculum are added to the CAMHB containing test compounds. A well without test compound is included for each strain as a growth control. […] The procedures used in these experiments are generally those standardized by the Clinical and Laboratory Standards Institute (CLSI), as set forth in the CLSI publication entitled “M7-A7. Methods for dilution antimicrobial susceptibility tests for bacteria that grow aerobically; approved standard-seventh edition.” (2006), which is incorporated by reference as if fully set forth herein. The following exemplifies such a procedure although it is to be understood that modifications of the procedure may be implemented as required.
(§2) Two-fold dilutions of the test compounds are prepared in CAMHB at 2× the concentration range to be tested if the compounds are soluble in aqueous solution. Alternately, dimethylsulfoxide (DMSO) is used to prepare two-fold dilutions at 10× the concentration range to be tested. Reference drugs such as cefotaxime, vancomycin or imipenem are used as positive controls. A few isolated colonies are retrieved from a pure culture prepared on an agar plate and suspended in PBS until the turbidity of the suspension matches a 0.5 McFarland standard which is equal to approximately 10^8 sCFU/mL. This solution is further diluted in CAMHB to 10^6CFU/mL if compounds are diluted in CAMHB and 5×10^5 CFU/mL if compounds are diluted in DMSO. The CAMHB plates containing the compound dilutions are combined in equal volumes with the higher density inoculum, or 10 μL of the DMSO dilutions are added to the lower density inoculum. When S. aureus is the organism being tested and the compound is oxacillin, a beta-lactam or a carbacephem compound of the present invention, 2% NaCl is added to the growth media. The plates are then incubated for 16-20 hours at 35° C. The plates are then observed to determine which concentration of the test compound is the MIC.

[3] = tested on: S. aureus ASAU002 (MRSA ATCC 33591); settings: previously reported (Craig et al.); cited from earlier work
[4] = tested on: S. aureus ASAU002 (MRSA ATCC 33591); test: MIC assay, S. aureus ASAU002; type: cell-based; settings: Staphylococcus aureus
Method: as §1, §2

[5] = previously reported (Griffith et al.); cited from earlier work
[6] = tested on: S. aureus ASAU1028 (CA-MRSA, USA400); test: MIC assay, S. aureus ASAU1028; type: cell-based; settings: Staphylococcus aureus, read-out: MIC ASAU 1028
Method: as §1, §2

[7] = tested on: S. aureus ASAU1043 (MRSA, CIP, ERY, CLI, GEN resistant); test: MIC assay, S. aureus ASAU1043; type: cell-based; settings: Staphylococcus aureus, read-out: MIC ASAU 1043
Method: as §1, §2

[8] = tested on: S. aureus ASAU1033 (MRSA, CIP, ERY, CLIN, TET, GEN resistant); test: MIC assay, S. aureus ASAU1033; type: cell-based; settings: Staphylococcus aureus, read-out: MIC ASAU 1033
Method: as §1, §2

[9] = tested on: S. aureus ASAU1029 (CA-MRSA, USA300); test: MIC assay, S. aureus ASAU1029; type: cell-based; settings: Staphylococcus aureus, read-out: MIC ASAU 1029
Method: as §1, §2

[10] = Pharmacokinetic study in rats; type: in vivo; settings: male, Sprague-Dawley, rat
Method: Male cannulated Sprague-Dawley rats (˜250 g) are administered test compounds by IV, PO, or SC routes. All animals are weighed prior to dose administration. Blood (˜0.25 mL) is collected by cannula transferred into microtainer tubes containing EDTA at time points 2 (I.V. animals only), 5, 15, 30, 60, 120, 240, 360, 480, 1440 minutes. After collection, the blood samples are centrifuged at approximately 1000×g at 2-8° C. for approximately 10 minutes. Each plasma specimen is collected, aliquoted into cluster tubes, and stored at ˜−20° C. until analysis.

[11] = tested on: Staphylococcus aureus Methicillin Resistance (MRSA) (ATCC 33591); test: Neutropenic mouse infected thigh model; type: in vivo, mice
Method: Groups of 6 male specific-pathogen-free CD-1 mice weighing 22±2 g are used. Animals are rendered immunosuppressedion by two intraperitoneal injections of cyclophosphamide, the first at 150 mg/kg 4 days before infection (day −4) and the second at 100 mg/kg 1 day before infection (day −1). On day 0, animals are inoculated intramuscularly (0.1 ml/thigh) with 1×10^5 CFU/mouse of Staphylococcus aureus Methicillin Resistance (MRSA) (ATCC 33591) into right thigh. Vehicle and/or test substances are then administered (IV, SC, or PO) 2 hours later. At 26 hours after inoculation, muscle of the right thigh is harvested from each of the survival test animals. The removed muscle tissues are then homogenized in 3 to 4 ml of PBS, pH 7.4 with a ceramic mortar. Homogenates of 0.1 ml are used for serial 10-fold dilutions and plated on Muller Hinton Broth in 1.5% Bacto® Agar for CFU determination. Decrease of the CFU/g muscle of right thigh in 99 percent or more (≧99) of the animals indicates significant activity. See, e.g., Andes, D. et al., Antimicrobial Agents and Chemotherapy, 46: 1665-1670 (2002); and Griffith, D. C., et al., Antimicrobial Agents and Chemotherapy, 50: 1628-1632 (2006).
Test compounds were dosed s.c. at 60, 120 or 240 mg/kg/day, except vancomycin at a single dose level of 220 mg/kg/day.

[12] = S. aureus ASAU002, MRSA ATCC 33591, read-out: MIC ASAU 002

Compound	log kill in CFU count [1]	MIC [2]	MIC [3]	MIC [4, 12]	T1/2 [5]	Vss [5]	MIC [6]	MIC [7]	MIC [8]	MIC [9]	time uncorrected plasma concentrations are above the MIC ([10]; in vivo, 10 mg/kg)	half-life ([10]; plasma, rats, 10 mg/kg IV)	Vd ([10]; plasma, rats, 10 mg/kg IV, read-out: volume of distribution Vss)	log kill (CFU) in thigh ([11]; s.c., lowest dose of 60 mg/kg/day (TID 20 mg/kg/8 h))	efficacy compared with vancomycin ([11]; vancomycin 220 mg/kg/day (BID 110 mg/kg/12 h))	MIC ([4]; strain used in the infected thigh model (ATCC 33591), read-out: MIC)
Nc1nnc(SC2=C(C(=O)O)N3C(=O)[C@@H](NC(=O)/C(=N\O)c4nc(N)sc4Cl)[C@H]3CC2)s1 [Comparative Compound 2]	3 log kill	≤ 1 µg/mL	1 µg/mL (≈ 1.93 µM)	≤ 1 µg/mL	1.47 h	0.91 L/kg	–	–	–	–	–	–	–	–	–	–
Nc1nc(/C(=N/O)C(=O)N[C@@H]2C(=O)N3C(C(=O)O)=C(Sc4ccncc4)CC[C@H]23)c(Cl)s1 [27/1, (6R,7S,Z)-7-(2-(2-amino-5-chlorothiazol-4-yl)-2-(hydroxyimino)acetamido)-8-oxo-3-(pyridin-4-ylthio)-1-aza-bicyclo[4.2.0]oct-2-ene-2-carboxylic Acid]	–	≤ 1 µg/mL	–	1 to 8 µg/mL (≈ 2.02 to 16.2 µM)	–	–	≤ 1 µg/mL	1 to 8 µg/mL (≈ 2.02 to 16.2 µM)	1 to 8 µg/mL (≈ 2.02 to 16.2 µM)	≤ 1 µg/mL	–	–	–	–	–	–
Cc1nc(SC2=C(C(=O)O)N3C(=O)[C@@H](NC(=O)/C(=N\O)c4nc(N)sc4Cl)[C@H]3CC2)sc1C [33/1, (6R,7S,Z)-7-(2-(2-amino-5-chlorothiazol-4-yl)-2-(hydroxyimino)acetamido)-3-(4,5-dimethylthiazol-2-ylthio)-8-oxo-1-aza-bicyclo[4.2.0]oct-2-ene-2-carboxylic Acid]	–	≤ 1 µg/mL	–	1 to 8 µg/mL (≈ 1.89 to 15.1 µM)	–	–	1 to 8 µg/mL (≈ 1.89 to 15.1 µM)	1 to 8 µg/mL (≈ 1.89 to 15.1 µM)	1 to 8 µg/mL (≈ 1.89 to 15.1 µM)	≤ 1 µg/mL	–	–	–	–	–	–
Nc1nc(/C(=N\O)C(=O)NC2C(=O)N3C(C(=O)O)=C(/C=C4\CCN(C5CCNC5)C4=O)CS[C@H]23)ns1 (some centres unmarked) [Comparative Compound 1, reference compound]	–	≤ 1 µg/mL	–	1 to 8 µg/mL (≈ 1.87 to 15 µM)	–	–	1 to 8 µg/mL (≈ 1.87 to 15 µM)	1 to 8 µg/mL (≈ 1.87 to 15 µM)	1 to 8 µg/mL (≈ 1.87 to 15 µM)	≤ 1 µg/mL	–	–	–	–	–	–
NCCSCc1cnccc1SC1=C(C(=O)O)N2C(=O)[C@@H](NC(=O)/C(=N\O)c3nsc(N)n3)[C@H]2CC1 [48/1, (6R,7S,Z)-7-(2-(5-amino-1,2,4-thiadiazol-3-yl)-2-(hydroxyimino)acetamido)-3-(3-((2-aminoethylthio)methyl)pyridin-4-ylthio)-8-oxo-1-aza-bicyclo[4.2.0]oct-2-ene-2-carboxylic Acid]	–	≤ 1 µg/mL	–	≤ 1 µg/mL	–	–	≤ 1 µg/mL	1 to 8 µg/mL (≈ 1.82 to 14.5 µM)	1 to 8 µg/mL (≈ 1.82 to 14.5 µM)	≤ 1 µg/mL	2 h	108 min	1.08 L/kg	1 log kill	more effective than vancomycin	1 µg/mL (≈ 1.82 µM)
Nc1nc(/C(=N/O)C(=O)N[C@@H]2C(=O)N3C(C(=O)O)=C(Sc4cscn4)CC[C@H]23)c(Cl)s1 [35/1, (6R,7S,Z)-7-(2-(2-amino-5-chlorothiazol-4-yl)-2-(hydroxyimino)acetamido)-8-oxo-3-(thiazol-4-ylthio)-1-aza-bicyclo[4.2.0]oct-2-ene-2-carboxylic Acid]	–	≤ 1 µg/mL	–	> 8 µg/mL	–	–	1 to 8 µg/mL (≈ 2 to 16 µM)	> 8 µg/mL	> 8 µg/mL	1 to 8 µg/mL (≈ 2 to 16 µM)	–	–	–	–	–	–
Nc1nc(/C(=N/O)C(=O)N[C@@H]2C(=O)N3C(C(=O)O)=C(Sc4nnc(N)s4)CC[C@H]23)ns1 [45/1, (6R,7S,Z)-7-(2-(5-amino-1,2,4-thiadiazol-3-yl)-2-(hydroxyimino)acetamido)-3-(5-amino-1,3,4-thiadiazol-2-ylthio)-8-oxo-1-aza-bicyclo[4.2.0]oct-2-ene-2-carboxylic Acid]	–	≤ 1 µg/mL	–	–	–	–	1 to 8 µg/mL (≈ 2.07 to 16.5 µM)	> 8 µg/mL	> 8 µg/mL	≤ 1 µg/mL	–	–	–	–	–	–
CO/N=C(\C(=O)N[C@@H]1C(=O)N2C(C(=O)O)=C(Sc3cccnc3CCN)CC[C@H]12)c1nc(N)sc1Cl [39/1, (6R,7S,Z)-7-(2-(2-amino-5-chlorothiazol-4-yl)-2-(methoxyimino)acetamido)-3-(2-(2-aminoethyl)pyridin-3-ylthio)-8-oxo-1-aza-bicyclo[4.2.0]oct-2-ene-2-carboxylic Acid]	–	≤ 1 µg/mL	–	–	–	–	1 to 8 µg/mL (≈ 1.81 to 14.5 µM)	> 8 µg/mL	> 8 µg/mL	1 to 8 µg/mL (≈ 1.81 to 14.5 µM)	–	–	–	–	–	–
CO/N=C(\C(=O)N[C@@H]1C(=O)N2C(C(=O)O)=C(Sc3cccnc3CSC3CCNC3)CC[C@H]12)c1nc(N)sc1Cl (stereo partly drawn) [42/1, (6R,7S,Z)-7-(2-(2-amino-5-chlorothiazol-4-yl)-2-(methoxyimino)acetamido)-8-oxo-3-(2-((pyrrolidin-3-ylthio)methyl)pyridin-3-ylthio)-1-aza-bicyclo[4.2.0]oct-2-ene-2-carboxylic Acid]	–	≤ 1 µg/mL	–	1 to 8 µg/mL (≈ 1.6 to 12.8 µM)	–	–	1 to 8 µg/mL (≈ 1.6 to 12.8 µM)	> 8 µg/mL	1 to 8 µg/mL (≈ 1.6 to 12.8 µM)	1 to 8 µg/mL (≈ 1.6 to 12.8 µM)	–	–	–	–	–	–
CO/N=C(\C(=O)N[C@@H]1C(=O)N2C(C(=O)O)=C(Sc3ccncc3CSCCN)CC[C@H]12)c1nsc(N)n1 [52/1, (6R,7S,Z)-7-(2-(5-amino-1,2,4-thiadiazol-3-yl)-2-(methoxyimino)acetamido)-3-(3-((2-aminoethylthio)methyl)pyridin-4-ylthio)-8-oxo-1-aza-bicyclo[4.2.0]oct-2-ene-2-carboxylic acid]	–	≤ 1 µg/mL	–	–	–	–	1 to 8 µg/mL (≈ 1.77 to 14.2 µM)	> 8 µg/mL	1 to 8 µg/mL (≈ 1.77 to 14.2 µM)	1 to 8 µg/mL (≈ 1.77 to 14.2 µM)	–	–	–	–	–	–
CO/N=C(\C(=O)N[C@@H]1C(=O)N2C(C(=O)O)=C(Sc3nncs3)CC[C@H]12)c1nsc(N)n1 [50/1, (6R,7S,Z)-3-(1,3,4-thiadiazol-2-ylthio)-7-(2-(5-amino-1,2,4-thiadiazol-3-yl)-2-(methoxyimino)acetamido)-8-oxo-1-aza-bicyclo[4.2.0]oct-2-ene-2-carboxylic Acid]	–	≤ 1 µg/mL	–	–	–	–	1 to 8 µg/mL (≈ 2.07 to 16.6 µM)	> 8 µg/mL	> 8 µg/mL	1 to 8 µg/mL (≈ 2.07 to 16.6 µM)	–	–	–	–	–	–
